Assay [1] addresses T1, DDB1-CDK12/Cyclin K ternary complex (Homo sapiens, UniProt Q16531+Q9NYV4).
T1 construct: expressed in transfected cells; host or cells: HEK293T wildtype cells, transient PEI transfection
The assay is described as follows: NanoBRET fold-change assay (HaloTag_CDK12 / NanoLuc_DDB1 in HEK293T). It counts as cell-based. The note with it: 10 μM compound, 10 minutes. On the procedure: This assay measures the interaction/recruitment of CDK12/Cyclin K to DDB1, mechanistically validating the molecular glue pharmacology.
HEK293T wildtype cells are seeded 800 k cells/well (DMEM+10% FBS+1% PS) in a 6-well plate and allowed to attach for ˜7 hours followed by a transient transfection of 1.5 μg HaloTag_CDK12 Plasmid [Table 1] and 0.15 μg NanoLuc_DDB1 plasmid [Table 1] per well using PEI. Cells are incubated at 37° C., 5% CO2, harvested after 24 hours and resuspended in assay media (Opti-MEM Reduced serum media, no phenol red, 4% FBS, 1% PS). Cells are adjusted to 2.3×10^5 cells/ml and treated with HaloTag 618 Ligand at 100 nM or DMSO. 8000 cells are seeded per well in triplicates per compound in a white-walled 384-well plate, one negative control treated with DMSO instead of HaloTag 618 Ligand is seeded in triplicates and the 384-well plate is incubated at 37° C., 5% CO2 overnight. Compound stock solutions are prepared in Opti-MEM−/− (Opti-MEM I Reduced serum media, no phenol red) at 8× and used to treat the cells at a final concentration of 1× at 10 μM. Cells and compounds are incubated for 10 minutes at room temperature followed by addition of NanoBRET Nano-Glo substrate following manufacturer's protocols. The plate is shaken for 30 sec followed by immediate measurement of donor emission (NanoBRET Blue at 460 nm) and acceptor emission (BRET Deep Red at 647 nm) for 0.5 s.

Assay [2] deals with KBM7 cells harboring a hypomorphic UBE2M mutation. The assay is described as follows: KBM7 CTG EC50 assay (UBE2M knock-out). The note with it: Homo sapiens, KBM-7; 72 h incubation, CellTiter-Glo; read-out: KBM7 CTG EC50 (UBE2M knock-out) Activity Class. It counts as cell-based. The text has this: (§1) This is a cell viability assay to measure the desired therapeutic effect, i.e. killing of cancer cells. The UBE2M mutant cell line has impaired activity of the Cullin-RING ligase system due to a hypomorphic mutation in UBE2M, which is required for activation of these E3 ligases. By comparison with WT cells, it is possible to estimate the contribution of Cyclin K degradation (which is reduced in UBE2M mut cells) compared to kinase inhibition of CDK12 (which is unaffected in UBE2M mut cells). Since the UBE2M mutation only reduces CRL function without fully abrogating it, this assay may slightly underestimate the effect of degradation because, at high compound concentrations, degradation may still be observed.
(§2) KBM7 cells (wild-type or harboring α hypomorphic UBE2M mutation (Mayor-Ruiz et al., 2019)) were seeded in a white opaque 384-well plate at a density of 1000 cells per well in duplicate, in full medium (IMDM+10% FBS+1% penicillin-streptomycin). Cells were treated with compounds in a 10-point titration with a dilution factor of 1:4 (range: 0 to 20 μM). After 72 h of incubation, the cell viability was determined using the CellTiter-Glo® 2.0 reactant (Promega), pre-diluted 1:4 in mQ water. The luminescence signal was measured using the multimode plate reader EnVision 2105 (Perkin Elmer).

A further assay has as its system CCNK. Put plainly: NanoLuc-CCNK degradation assay (HEK293T_Nluc_CCNK-tagged cells). The format is cell-based. The conditions noted are these: 4 h incubation, HEK293T_Nluc_CCNK-tagged cells; for DC50: read-out: NanoLuc-CCNK degradation DC50 Activity Class. On the procedure: The assay helps to elucidate the mechanistic explanation of the cell killing effect of the compounds of the present invention. Cyclin K is fused to a nanoluciferase, light emission is measured as a proxy of Cyclin K abundance. Potency of Cyclin K degradation and cytotoxicity of KBM7 correlate extremely well, further supporting Cyclin K degradation being the main driver of the cell killing, as opposed to inhibition of CDK12 catalytic activity.
HEK293T_Nluc_CCNK-tagged cells were engineered by integrating a nanoluciferase tag at the N-terminus of the endogenous locus of CCNK using CRISPR-Cas9 technology. Briefly, 5.5 million HEK293T cells were co-transfected by PEI with a 1:1 ratio of cutting vector (sgRNA: […]) and repair template (4 μg total plasmid) as previously described (Brand and Winter, 2019). The repair sequence comprises a cassette of puromycinR-P2A-HA-Nluc-(G4S)3 (P2A: self-cleaving peptide 2A, HA: HA-tag, (G4S)3: flexible linker), surrounded by 20-nucleotide microhomologies matching the genomic locus. After 3 days of incubation, the recombinant population was selected by puromycin treatment (2 μg/ml, 5-day treatment). A monoclonal population was obtained by limiting dilution and cassette integration validated by Sanger sequencing.
HEK293T_Nluc_CCNK-tagged cells were seeded in a white opaque 384-well plate at a density of 8000 cells per well in duplicate, in full medium (Opti-MEM I+4% FBS+1% PS). Cells were treated with compounds in a 10-point titration (range: 0 to 10 μM, 1:4 dilution). After 4 h of incubation, Nano-Glo substrate (Promega), pre-diluted in serum-free medium (Opti-MEM I), was added to the cells (1:500 final dilution). The luminescence signal was directly measured using the multimode plate reader EnVision 2105 (Perkin Elmer).

The test system of another assay is KBM7 cells (wild-type). The assay is described as follows: KBM7 CTG EC50 assay (UBE2M wild-type). It counts as cell-based, human. The conditions noted are these: for EC50: Homo sapiens, KBM-7, 72 h incubation, CellTiter-Glo, read-out: KBM7 CTG EC50 (UBE2M wild-type) Activity Class; for Ratio UBE2M WT to KO: ratio of anti-proliferative activity in KBM7 wild-type versus UBE2M knock-out cells (fold).
Description: as §1, §2
On the technique in general: ATP-based viability assays read luminescence as a measure of living cells.

T1 sequence (Q9NYV4 whole entry): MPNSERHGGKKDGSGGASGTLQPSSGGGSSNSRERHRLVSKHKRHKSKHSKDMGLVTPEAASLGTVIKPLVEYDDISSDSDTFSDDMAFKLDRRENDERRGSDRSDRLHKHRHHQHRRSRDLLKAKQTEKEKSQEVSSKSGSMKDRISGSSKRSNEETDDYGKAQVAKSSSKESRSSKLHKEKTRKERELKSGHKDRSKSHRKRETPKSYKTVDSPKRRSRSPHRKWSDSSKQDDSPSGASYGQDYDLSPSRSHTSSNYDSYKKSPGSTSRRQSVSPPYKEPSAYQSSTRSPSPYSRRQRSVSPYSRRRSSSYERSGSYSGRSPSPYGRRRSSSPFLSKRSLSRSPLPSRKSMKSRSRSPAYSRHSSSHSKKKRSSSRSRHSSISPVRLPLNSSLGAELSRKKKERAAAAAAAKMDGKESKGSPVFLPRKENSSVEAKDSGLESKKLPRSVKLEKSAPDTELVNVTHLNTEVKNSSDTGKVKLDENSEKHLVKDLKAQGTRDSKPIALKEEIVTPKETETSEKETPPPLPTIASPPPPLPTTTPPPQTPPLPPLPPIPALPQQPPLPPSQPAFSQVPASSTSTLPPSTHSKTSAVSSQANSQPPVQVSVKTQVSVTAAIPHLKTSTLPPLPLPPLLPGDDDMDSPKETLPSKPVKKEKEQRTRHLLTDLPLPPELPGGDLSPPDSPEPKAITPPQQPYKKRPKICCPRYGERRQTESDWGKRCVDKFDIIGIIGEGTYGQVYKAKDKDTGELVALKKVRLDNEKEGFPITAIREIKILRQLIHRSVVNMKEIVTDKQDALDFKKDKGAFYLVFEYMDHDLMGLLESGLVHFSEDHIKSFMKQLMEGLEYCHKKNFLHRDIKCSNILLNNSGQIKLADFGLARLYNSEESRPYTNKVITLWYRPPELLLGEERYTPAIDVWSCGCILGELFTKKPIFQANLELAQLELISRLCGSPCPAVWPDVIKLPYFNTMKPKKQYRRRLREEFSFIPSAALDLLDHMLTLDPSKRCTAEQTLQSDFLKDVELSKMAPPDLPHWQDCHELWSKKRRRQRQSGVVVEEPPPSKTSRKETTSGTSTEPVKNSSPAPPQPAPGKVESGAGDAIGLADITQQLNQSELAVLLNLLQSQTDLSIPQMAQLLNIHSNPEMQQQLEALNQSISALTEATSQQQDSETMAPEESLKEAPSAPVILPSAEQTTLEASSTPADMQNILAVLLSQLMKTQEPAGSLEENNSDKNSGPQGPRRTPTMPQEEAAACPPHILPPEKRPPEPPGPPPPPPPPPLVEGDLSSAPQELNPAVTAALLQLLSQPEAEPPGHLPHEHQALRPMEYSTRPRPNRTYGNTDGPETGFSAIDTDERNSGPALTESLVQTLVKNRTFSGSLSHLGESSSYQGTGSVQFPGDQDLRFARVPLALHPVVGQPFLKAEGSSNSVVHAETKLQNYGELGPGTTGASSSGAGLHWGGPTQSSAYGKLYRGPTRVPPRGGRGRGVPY
T1 sequence (Q16531 whole entry): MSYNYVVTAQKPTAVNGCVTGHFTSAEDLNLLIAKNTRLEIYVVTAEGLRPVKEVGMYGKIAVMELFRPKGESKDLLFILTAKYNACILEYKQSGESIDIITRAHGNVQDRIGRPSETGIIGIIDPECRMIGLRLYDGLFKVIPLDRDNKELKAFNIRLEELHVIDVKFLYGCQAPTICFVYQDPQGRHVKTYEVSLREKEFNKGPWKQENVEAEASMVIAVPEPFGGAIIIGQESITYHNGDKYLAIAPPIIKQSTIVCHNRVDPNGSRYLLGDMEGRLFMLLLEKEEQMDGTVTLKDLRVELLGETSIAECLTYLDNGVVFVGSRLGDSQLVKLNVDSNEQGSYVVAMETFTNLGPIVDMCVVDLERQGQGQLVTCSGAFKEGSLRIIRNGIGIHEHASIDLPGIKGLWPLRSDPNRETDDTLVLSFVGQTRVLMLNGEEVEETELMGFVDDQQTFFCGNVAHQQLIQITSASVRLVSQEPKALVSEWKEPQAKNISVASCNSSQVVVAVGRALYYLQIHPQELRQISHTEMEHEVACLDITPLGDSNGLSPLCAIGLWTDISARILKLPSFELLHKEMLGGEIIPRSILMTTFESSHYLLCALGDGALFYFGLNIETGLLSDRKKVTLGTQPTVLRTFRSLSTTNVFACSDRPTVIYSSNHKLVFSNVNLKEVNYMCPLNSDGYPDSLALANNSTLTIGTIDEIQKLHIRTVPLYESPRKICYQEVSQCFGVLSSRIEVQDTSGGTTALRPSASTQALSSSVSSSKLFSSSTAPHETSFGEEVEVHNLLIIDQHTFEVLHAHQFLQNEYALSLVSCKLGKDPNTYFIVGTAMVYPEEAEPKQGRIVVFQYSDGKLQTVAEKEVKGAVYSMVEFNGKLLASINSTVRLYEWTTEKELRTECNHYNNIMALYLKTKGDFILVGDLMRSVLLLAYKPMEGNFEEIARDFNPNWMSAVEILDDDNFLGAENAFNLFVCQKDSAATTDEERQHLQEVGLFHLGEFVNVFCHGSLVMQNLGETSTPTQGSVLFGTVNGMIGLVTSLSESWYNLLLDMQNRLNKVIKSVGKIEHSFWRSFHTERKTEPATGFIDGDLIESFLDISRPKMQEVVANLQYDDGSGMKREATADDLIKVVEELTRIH
T1 sequence (O75909 whole entry partner): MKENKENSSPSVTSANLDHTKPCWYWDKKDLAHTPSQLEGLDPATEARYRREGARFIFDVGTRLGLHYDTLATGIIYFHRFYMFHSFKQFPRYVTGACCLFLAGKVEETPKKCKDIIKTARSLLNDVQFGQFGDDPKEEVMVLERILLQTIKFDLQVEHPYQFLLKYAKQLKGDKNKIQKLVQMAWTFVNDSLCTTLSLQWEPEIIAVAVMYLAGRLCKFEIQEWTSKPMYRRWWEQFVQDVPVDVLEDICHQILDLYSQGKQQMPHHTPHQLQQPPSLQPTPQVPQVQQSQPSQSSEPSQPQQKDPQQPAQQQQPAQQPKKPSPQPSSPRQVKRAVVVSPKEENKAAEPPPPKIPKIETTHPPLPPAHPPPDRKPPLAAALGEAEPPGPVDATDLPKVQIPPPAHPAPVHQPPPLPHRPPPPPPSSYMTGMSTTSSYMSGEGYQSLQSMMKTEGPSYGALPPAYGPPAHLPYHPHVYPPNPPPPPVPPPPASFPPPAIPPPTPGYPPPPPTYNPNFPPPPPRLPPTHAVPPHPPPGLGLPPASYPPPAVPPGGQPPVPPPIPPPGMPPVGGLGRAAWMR

Take `O=C(Nc1ncc(C(F)(F)F)s1)C1CC(=O)N(Cc2ccccc2)C1` (stereo not shown) [Example 3-27, 1-benzyl-5-oxo-N-(5-(trifluoromethyl)thiazol-2-yl)pyrrolidine-3-carboxamide]: in assay [1], the “NanoBRET fold-change Activity Class” value was “B (3-4 fold increase)”. Further, the concentration giving a half-maximal response (EC50) is > 10 µM in assay [2] and ≤ 0.25 µM in the assay with KBM7 cells (wild-type). Further, the half-maximal degradation concentration (DC50) in the assay on CCNK was ≤ 0.1 µM. The “Ratio UBE2M WT to KO” value in the assay with KBM7 cells (wild-type) is >10.
The corresponding values for `O=C(Nc1ncc(C(F)(F)F)s1)C1CC(=O)N(c2ccc(F)c(F)c2)C1` (stereo not shown) [Example 3-23, 1-(3,4-difluorophenyl)-5-oxo-N-(5-(trifluoromethyl)thiazol-2-yl)pyrrolidine-3-carboxamide] are “B (3-4 fold increase)”, > 10 µM, ≤ 0.25 µM, > 10 µM and >10.
Regarding `O=C(Cc1cn2cc(F)ccc2n1)Nc1cc(Br)[nH]n1` [Example 3-58, N-(5-bromo-1H-pyrazol-3-yl)-2-(6-fluoroimidazo[1,2-a]pyridin-2-yl)acetamide], the “NanoBRET fold-change Activity Class” value in assay [1] was “C (2-3 fold increase)”. The EC50 is > 10 µM in assay [2] and ≤ 0.25 µM with KBM7 cells (wild-type). Moreover, the half-maximal degradation concentration (DC50) with CCNK was > 10 µM. The “Ratio UBE2M WT to KO” value in the assay with KBM7 cells (wild-type) is >10.
`O=C(Cc1cccc2cnccc12)Nc1ncc(C(F)(F)F)s1` [Example 3-30, 2-(isoquinolin-5-yl)-N-(5-(trifluoromethyl)thiazol-2-yl)acetamide]: the “NanoBRET fold-change Activity Class” value in assay [1] is “C (2-3 fold increase)”. Further, in assay [2], the 50% effective concentration (EC50) is > 10 µM. In the assay on CCNK, the half-maximal degradation concentration (DC50) is > 10 µM. Further, in the assay with KBM7 cells (wild-type), the EC50 is > 10 µM and the “Ratio UBE2M WT to KO” value is listed as >1.
`O=C(Cc1cccc2ccncc12)Nc1ncc(C(F)(F)F)s1` [Example 3-33, 2-(isoquinolin-8-yl)-N-(5-(trifluoromethyl)thiazol-2-yl)acetamide]: the “NanoBRET fold-change Activity Class” value in assay [1] was “A (greater than 4-fold increase)”. For the same compound, in assay [2], the 50% effective concentration (EC50) was 1 to 10 µM. Also, the half-maximal degradation concentration (DC50) with CCNK was > 10 µM. For the same compound, in the assay on KBM7 cells (wild-type), the EC50 was ≤ 0.25 µM and the “Ratio UBE2M WT to KO” value was determined as 64.7.
As to `Cc1ccc2c(CC(=O)Nc3cc(C4CC4)[nH]n3)coc2c1C` [Example 3-46, N-(5-cyclopropyl-1H-pyrazol-3-yl)-2-(6,7-dimethylbenzofuran-3-yl)acetamide], in assay [1], the “NanoBRET fold-change Activity Class” value is “B (3-4 fold increase)”. Besides, the concentration for a half-maximal effect (EC50) in assay [2] is > 10 µM. In addition, in the assay with CCNK, the “NanoLuc-CCNK degradation DC50 Activity Class” value is reported as “D (10 μM≤DC50<1.0 μM)”. In the assay on KBM7 cells (wild-type), the concentration giving a half-maximal response (EC50) lay in the range of 0.5 to 1 µM and the “Ratio UBE2M WT to KO” value is listed as >10.
As to `O=C(Cc1cc2ccccc2s1)Nc1ncc(C(F)(F)F)s1` [Example 3-10, 2-(benzo[b]thiophen-2-yl)-N-(5-(trifluoromethyl)thiazol-2-yl)acetamide], the “NanoBRET fold-change Activity Class” value in assay [1] is recorded as “C (2-3 fold increase)”. Moreover, the 50% effective concentration (EC50) in assay [2] is 1 to 10 µM. Besides, the DC50 with CCNK is ≤ 0.1 µM. Besides, in the assay on KBM7 cells (wild-type), the EC50 is ≤ 0.25 µM and the “Ratio UBE2M WT to KO” value came out at 23.6.
As for `Cc1cccn2c(CC(=O)Nc3ncc(C(F)(F)F)s3)cnc12` [Example 3-6, 2-(8-methylimidazo[1,2-a]pyridin-3-yl)-N-(5-(trifluoromethyl)thiazol-2-yl)acetamide], the “NanoBRET fold-change Activity Class” value in assay [1] is “C (2-3 fold increase)”. In assay [2], the EC50 was in the range of 1 to 10 µM. Moreover, the “NanoLuc-CCNK degradation DC50 Activity Class” value in the assay with CCNK is “D (10 μM≤DC50<1.0 μM)”. In the assay on KBM7 cells (wild-type), the 50% effective concentration (EC50) was ≤ 0.25 µM and the “Ratio UBE2M WT to KO” value came out at 129.4.
For `CC(C)c1cc(NC(=O)Cc2cn3cc(F)ccc3n2)n[nH]1` [Example 3-57, 2-(6-fluoroimidazo[1,2-a]pyridin-2-yl)-N-(5-isopropyl-1H-pyrazol-3-yl)acetamide] the same measures were “B (3-4 fold increase)”, 1 to 10 µM, “B (0.50 μM≤DC50<0.10 μM)”, ≤ 0.25 µM and 146.3.
Regarding `O=C(Nc1ncc(C(F)(F)F)s1)C1CC(=O)N(c2ccc3c(c2)OCO3)C1` (stereo not shown) [Example 3-25, 1-(benzo[d][1,3]dioxol-5-yl)-5-oxo-N-(5-(trifluoromethyl)thiazol-2-yl)pyrrolidine-3-carboxamide], the “NanoBRET fold-change Activity Class” value in assay [1] is on record as “B (3-4 fold increase)”. Besides, in assay [2], the EC50 was > 10 µM. In addition, in the assay with CCNK, the DC50 is > 10 µM. For the same compound, in the assay with KBM7 cells (wild-type), the 50% effective concentration (EC50) fell in the range of 0.25 to 0.5 µM and the “Ratio UBE2M WT to KO” value is on record as >10.
For the compound `Cc1ccc2c(CC(=O)Nc3ccc(C(F)(F)F)cn3)coc2c1C` [Example 3-54, 2-(6,7-dimethylbenzofuran-3-yl)-N-(5-(trifluoromethyl)pyridin-2-yl)acetamide], in assay [1], the “NanoBRET fold-change Activity Class” value is given as “C (2-3 fold increase)”. Besides, the EC50 in assay [2] lay in the range of 1 to 10 µM. Also, the DC50 in the assay on CCNK is > 10 µM. Also, in the assay with KBM7 cells (wild-type), the half-maximal effective concentration (EC50) was ≤ 0.25 µM and the “Ratio UBE2M WT to KO” value turned out to be 24.7.
With `Cc1ccc(N2CC(C(=O)Nc3ncc(C(F)(F)F)s3)CC2=O)cc1` (stereo not shown) [Example 3-16, 5-oxo-1-(p-tolyl)-N-(5-(trifluoromethyl)thiazol-2-yl)pyrrolidine-3-carboxamide], the “NanoBRET fold-change Activity Class” value in assay [1] is reported as “C (2-3 fold increase)”. Further, the 50% effective concentration (EC50) in assay [2] was > 10 µM. Besides, the “NanoLuc-CCNK degradation DC50 Activity Class” value in the assay with CCNK was “C (1.0 μM≤DC50<0.50 μM)”. Moreover, in the assay with KBM7 cells (wild-type), the concentration giving a half-maximal response (EC50) is 0.25 to 0.5 µM and the “Ratio UBE2M WT to KO” value was >10.
For `O=C(Cc1c[nH]c2nccc(Cl)c12)Nc1ncc(C(F)(F)F)s1` [Example 3-39, 2-(4-chloro-1H-pyrrolo[2,3-b]pyridin-3-yl)-N-(5-(trifluoromethyl)thiazol-2-yl)acetamide], the “NanoBRET fold-change Activity Class” value in assay [1] is “B (3-4 fold increase)”. Moreover, the EC50 is > 10 µM in assay [2] and 1 to 10 µM in the assay with KBM7 cells (wild-type). Also, the “NanoLuc-CCNK degradation DC50 Activity Class” value in the assay on CCNK is “D (10 μM≤DC50<1.0 μM)”. In addition, the “Ratio UBE2M WT to KO” value with KBM7 cells (wild-type) is on record as >4.
Take `O=C(Cc1cncc2ccccc12)Nc1ncc(C(F)(F)F)s1` [Example 3-34, 2-(isoquinolin-4-yl)-N-(5-(trifluoromethyl)thiazol-2-yl)acetamide]: the “NanoBRET fold-change Activity Class” value in assay [1] is reported as “C (2-3 fold increase)”. Further, in assay [2], the EC50 was > 10 µM. The DC50 in the assay on CCNK is > 10 µM. Moreover, in the assay on KBM7 cells (wild-type), the concentration for a half-maximal effect (EC50) is 1 to 10 µM and the “Ratio UBE2M WT to KO” value is >3.

The EC50 is the concentration at which the effect is half-maximal. One may read the DC50 as the concentration giving 50% degradation.

(Values after patent US20240132485A1, “HETEROCYCLIC CULLIN RING UBIQUITIN LIGASE COMPOUNDS AND USES THEREOF” (CEMM - FORSCHUNGSZENTRUM FÜR MOLEKULARE MEDIZIN GMBH, priority 2020, published 2024).)
